Drawing on ChEMBL document CHEMBL1148761, “2-aroylindoles and 2-aroylbenzofurans with N-hydroxyacrylamide substructures as a novel series of rationally designed histone deacetylase inhibitors” (J Med Chem, 2007), this text covers IC50, EC50 and Activity for 16 molecules.

The target in one test is Histone deacetylase 1 (Homo sapiens, UniProt Q13547).
Test [1] addresses Histone deacetylase. Briefly: Inhibition of HDAC in HeLa cells assessed as induction of human histone H3 hyperacetylation. The class given is cell-based.
The target of test [2] is Histone deacetylase. Nature of the test: Inhibition of HDAC in HeLa cells. It is filed as cell-based, Homo sapiens.
The test system of the next test is HeLa. Nature of the test: Cytotoxicity against HeLa cells. The class given is functional, cell-based. As to conditions: Homo sapiens.
A further test concerns EOL1. Nature of the test: Cytotoxicity against human EOL1cells. The class given is functional, cell-based.
In the next test the test system is ASPC1. Nature of the test: Cytotoxicity against human AsPC1 cells. It is filed as functional, cell-based.
For test [3], the system named is A549. Briefly: Induction of apoptosis in A549 cells at 10 uM. As to conditions: Homo sapiens. It is filed as functional, cell-based.
A short description of a further test: cells. The class given is functional, cell-based. To be noted: Homo sapiens, WM 266-4.
The next test relates to A-431. Briefly: Cytotoxicity against human A431 cells. It is filed as functional, cell-based.
A further test has as its system 549. Briefly: Inhibition of histone-H3S phosphorylation in […] cells at 10 uM. The class given is cell-based.
Another test deals with SAOS-2. Nature of the test: Cytotoxicity against human Saos2 cells. It is filed as functional, cell-based.
In test [4] the test system is CCRF-CEM. Nature of the test: Cytotoxicity against vincristine resistant human CCRF-CEM cells. The class given is functional, cell-based.
Another test has as its system HCT-116. Briefly: Cytotoxicity against human HCT116 cells. It is filed as functional, cell-based.
Test [5] concerns RKO. Briefly: Induction of human histone H3 hyperacetylation in RKO cells at 1 to 3 uM. It is filed as functional, cell-based.
The subject of another test is HCT-15. Briefly: Cytotoxicity against human HCT15 cells. The class given is functional, cell-based.
The subject of another test is SK-BR-3. Nature of the test: Cytotoxicity against human SKBR3 cells. It is filed as functional, cell-based.
Another test deals with NCI. Nature of the test: Cytotoxicity against human NCI H69 cells. The class given is functional, cell-based.
The subject of the next test is A2780. Briefly: Cytotoxicity against human A2780 cells. The class given is functional, cell-based.
Test [6] deals with CCRF-CEM. Briefly: Cytotoxicity against human CCRF-CEM cells. The class given is functional, cell-based.
Test [7] has as its system RKO. Briefly: Inhibition of histone-H3S phosphorylation in human RKO cells at 10 uM. It is filed as cell-based.
A further test has as its system MDA-MB-468. Briefly: Cytotoxicity against human MDA-MB-468 cells. It is filed as functional, cell-based.
The test system of the next test is NCI-H460. Nature of the test: Cytotoxicity against human NCI H460 cells. It is filed as functional, cell-based.
For a further test, the system named is MDA-MB-231. Briefly: Cytotoxicity against human MDA-MB-231cells. It is filed as functional, cell-based.
The test system of test [8] is A549. Nature of the test: Cytotoxicity against human A549 cells. The class given is functional, cell-based.
For another test, the system named is CAL-27. Briefly: Cytotoxicity against human Cal27 cells. The class given is functional, cell-based.
A short description of test [9]: Cytotoxicity against human proliferating RKOp21 cells. The class given is functional, cell-based.
A further test deals with PC-3. Briefly: Cytotoxicity against human PC3 cells. The class given is functional, cell-based.
Test [10] in a line: Cytotoxicity against human Hec-1-A cells. It is filed as functional, cell-based.
The next test deals with MCF7. Nature of the test: Cytotoxicity against human MCF7 cells. The class given is functional, cell-based.
Test [11] can be described thus: Cytotoxicity against human U87MG cells. It is filed as functional, cell-based, U-87MG ATCC. To be noted: U-87 MG.
A further test addresses Histone deacetylase 8 (Homo sapiens, UniProt Q9BY41). Nature of the test: Inhibition of recombinant HDAC8.
The test system of test [12] is A549. Nature of the test: Induction of human histone H3 hyperacetylation in A549 cells at 1 to 3 uM. It is filed as functional, cell-based.
Test [13] in a line: Cytotoxicity against human non-proliferating RKOp21 cells. It is filed as functional, cell-based.
A further test concerns the target Histone deacetylase 3 (Homo sapiens, UniProt O15379). Briefly: Inhibition of recombinant HDAC3.
In a further test the test system is K562. Briefly: Cytotoxicity against human K562 cells. It is filed as functional, cell-based.
A further test relates to SK-OV-3. Briefly: Cytotoxicity against human SK-OV-3 cells. The class given is functional, cell-based.

Molecules are shown by their SMILES. Activity calls are given as the source filed them. The calls are words filed in the database; no cut-off is given here.

Histone deacetylase 1, sequence (Q13547 whole entry): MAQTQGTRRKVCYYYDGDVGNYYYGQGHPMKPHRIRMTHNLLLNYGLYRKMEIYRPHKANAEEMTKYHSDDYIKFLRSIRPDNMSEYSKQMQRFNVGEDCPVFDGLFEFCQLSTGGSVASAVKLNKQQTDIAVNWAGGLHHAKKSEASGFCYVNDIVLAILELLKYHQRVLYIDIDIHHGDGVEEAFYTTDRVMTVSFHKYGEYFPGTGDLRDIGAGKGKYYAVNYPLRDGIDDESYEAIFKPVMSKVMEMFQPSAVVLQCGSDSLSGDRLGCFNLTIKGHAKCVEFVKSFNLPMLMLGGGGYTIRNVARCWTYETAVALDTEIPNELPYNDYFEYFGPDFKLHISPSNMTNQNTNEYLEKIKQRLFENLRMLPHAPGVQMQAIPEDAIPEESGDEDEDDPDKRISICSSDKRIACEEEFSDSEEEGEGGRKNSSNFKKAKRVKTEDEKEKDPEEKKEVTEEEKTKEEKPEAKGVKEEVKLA
Histone deacetylase 3, sequence (O15379 whole entry): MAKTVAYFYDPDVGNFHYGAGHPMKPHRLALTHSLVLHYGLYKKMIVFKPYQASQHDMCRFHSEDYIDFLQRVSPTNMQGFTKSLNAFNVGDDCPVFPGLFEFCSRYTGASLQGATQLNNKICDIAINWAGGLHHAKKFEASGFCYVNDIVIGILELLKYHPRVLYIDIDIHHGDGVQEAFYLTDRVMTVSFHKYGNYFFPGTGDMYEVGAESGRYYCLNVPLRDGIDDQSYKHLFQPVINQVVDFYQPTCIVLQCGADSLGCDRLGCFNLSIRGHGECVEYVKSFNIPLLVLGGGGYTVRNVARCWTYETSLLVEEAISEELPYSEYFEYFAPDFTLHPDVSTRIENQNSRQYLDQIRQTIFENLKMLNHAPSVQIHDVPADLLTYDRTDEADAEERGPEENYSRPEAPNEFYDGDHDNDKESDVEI
Histone deacetylase 8, sequence (Q9BY41 whole entry): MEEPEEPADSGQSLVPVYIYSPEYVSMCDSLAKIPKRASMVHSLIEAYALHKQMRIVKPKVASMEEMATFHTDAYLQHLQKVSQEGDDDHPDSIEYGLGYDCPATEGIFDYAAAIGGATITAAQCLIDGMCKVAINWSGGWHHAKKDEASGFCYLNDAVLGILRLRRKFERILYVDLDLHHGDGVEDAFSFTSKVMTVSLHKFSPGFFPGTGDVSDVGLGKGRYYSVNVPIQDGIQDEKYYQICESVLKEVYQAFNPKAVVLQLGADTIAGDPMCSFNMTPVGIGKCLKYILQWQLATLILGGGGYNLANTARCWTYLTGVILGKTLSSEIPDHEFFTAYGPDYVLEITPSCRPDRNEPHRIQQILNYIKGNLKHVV
Description for Histone deacetylase 1: Inhibition of recombinant HDAC1 in HeLa cells
Description for cells: Cytotoxicity against human WM 266-4 cells

With `O=C(/C=C/c1ccc2c(c1)cc(C(=O)c1ccccc1)n2S(=O)(=O)c1ccccc1)NO`, the IC50 (in general, the concentration that inhibits the measured activity by half) on Histone deacetylase 1 came to 200 nM; at Histone deacetylase [2], 90 nM; with HeLa it was 2880 nM. Moreover, at Histone deacetylase [1], the EC50 (in general, the concentration needed to bring the measured effect to its halfway point) came out at 2670 nM.
Taken in the same sequence, the figures for `O=C(/C=C/c1ccc(C(=O)c2cc3ccccc3o2)cc1)NO` were 520 nM, 450 nM, 2600 nM and 1100 nM.
Taken in the same sequence, the figures for `COc1cc(C(=O)c2cc3cc(/C=C/C(=O)NO)ccc3o2)cc(OC)c1OC` were 1100 nM, 1000 nM, 5770 nM and 7500 nM.
With `O=C(/C=C/c1cccc(C(=O)c2cc3ccccc3[nH]2)c1)NO`, the IC50 on Histone deacetylase 1 was found to be 31 nM; in the test on EOL1, 73 nM; with ASPC1 it was 3900 nM; in “cells”, 310 nM; with A-431 it was 600 nM; in the test with SAOS-2 it was 1000 nM. The concentration for half-maximal inhibition (IC50) is 250 nM in the test with CCRF-CEM [4]; 360 nM with HCT-116; 39 nM at Histone deacetylase [2]; 770 nM with HCT-15; 530 nM with SK-BR-3; 330 nM in the test on NCI. Also, the IC50 in the test on A2780 is 340 nM; with CCRF-CEM [6] it was 200 nM; in the test on MDA-MB-468, 550 nM; with HeLa, 850 nM; in the test with NCI-H460, 260 nM; in the test with MDA-MB-231, 900 nM. The half-maximal inhibitory concentration (IC50) came out at 970 nM in the test with A549 [8]; 750 nM in the test on CAL-27; 1050 nM in test [9]; 210 nM in the test with PC-3; 620 nM in test [10]; 1900 nM with MCF7. Further, the 50% inhibitory concentration (IC50) in test [11] worked out at 1000 nM; at Histone deacetylase 8 it was 32 nM; in [13], 2570 nM; at Histone deacetylase 3, 50 nM; with K562, 170 nM; in the test with SK-OV-3 it was 900 nM. For the same molecule, the outcome with A549 [3], with 549, in the test on RKO [5], in the test on RKO [7] and in the test with A549 [12] was Active. Moreover, the EC50 at Histone deacetylase [1] turned out to be 1300 nM.
On to `O=C(/C=C/c1ccc(C(=O)c2cc3ccccc3[nH]2)cc1)NO`, for which the IC50 at Histone deacetylase 1 worked out at 410 nM; on Histone deacetylase [2], 310 nM; in the test on HeLa, 4750 nM. Further, the EC50 at Histone deacetylase [1] was 2970 nM.
The corresponding values for `O=C(/C=C/c1ccc(C(=O)c2cc3ccccc3n2S(=O)(=O)c2ccccc2)cc1)NO` are 690 nM, 270 nM, 5420 nM and 5700 nM.
Taken in the same sequence, the figures for `COc1cccc(C(=O)c2cc3cc(/C=C/C(=O)NO)ccc3o2)c1` were 950 nM, 650 nM, 4110 nM and 4100 nM.
`O=C(CCCCCCC(=O)Nc1ccccc1)NO` [VORINOSTAT]: the figures for the IC50 in the test on SAOS-2, with MDA-MB-231 and in the test with SK-OV-3 were 2300 nM, 2200 nM and 2200 nM, respectively.
With `O=C(/C=C/c1ccc2[nH]c(C(=O)c3ccccc3)cc2c1)NO`, the IC50 against Histone deacetylase 1 amounted to 250 nM; on Histone deacetylase [2], 340 nM; with HeLa, 3970 nM. The EC50 at Histone deacetylase [1] came to 3770 nM.
As to `COc1cccc(C(=O)c2cc3cc(/C=C/C(=O)NO)ccc3n2S(=O)(=O)c2ccccc2)c1`, the half-maximal inhibitory concentration (IC50) against Histone deacetylase 1 came to 230 nM; on Histone deacetylase [2], 120 nM; in the test on HeLa it was 3340 nM. Further, at Histone deacetylase [1], the EC50 amounted to 2780 nM.
Taken in the same sequence, the figures for `O=C(/C=C/c1ccc2oc(C(=O)c3ccccc3)cc2c1)NO` were 1200 nM, 830 nM, 5610 nM and 2650 nM.
With `O=C(/C=C/c1cccc(C(=O)c2cc3ccccc3n2S(=O)(=O)c2ccccc2)c1)NO`, the IC50 on Histone deacetylase 1 worked out at 89 nM; on Histone deacetylase [2], 34 nM; with HeLa, 1730 nM. Further, at Histone deacetylase [1], the EC50 came out at 1000 nM.
The corresponding values for `COc1ccc2c(c1)cc(C(=O)c1ccc(/C=C/C(=O)NO)cc1)n2S(=O)(=O)c1ccccc1` are 880 nM, 260 nM, 5420 nM and 6900 nM.
With `O=C(/C=C/c1cccc(C(=O)c2cc3ccccc3o2)c1)NO`, the IC50 against Histone deacetylase 1 stood at 52 nM; with EOL1 it was 49 nM; in the test with ASPC1 it was 3500 nM; in “cells” it was 310 nM; with A-431, 590 nM; in the test with SAOS-2, 920 nM. For the same molecule, the IC50 in the test with CCRF-CEM [4] came to 240 nM; in the test on HCT-116, 360 nM; on Histone deacetylase [2], 57 nM; with HCT-15, 740 nM; with SK-BR-3, 310 nM; in the test on NCI, 190 nM. The IC50 with A2780 came out at 350 nM; with CCRF-CEM [6] it was 180 nM; in the test with MDA-MB-468, 500 nM; with HeLa, 680 nM; in the test on NCI-H460 it was 250 nM; in the test on MDA-MB-231, 730 nM. Moreover, the IC50 with A549 [8] turned out to be 770 nM; in the test on CAL-27 it was 660 nM; in test [9] it was 960 nM; in the test with PC-3, 160 nM; in test [10], 470 nM; with MCF7, 1300 nM. Besides, the 50% inhibitory concentration (IC50) in test [11] amounted to 1100 nM; on Histone deacetylase 8 it was 79 nM; in test [13] it was 3690 nM; at Histone deacetylase 3 it was 79 nM; in the test on K562 it was 150 nM; in the test with SK-OV-3, 740 nM. In addition, the result with A549 [3], in the test on 549, in the test with RKO [5], in the test with RKO [7] and in the test on A549 [12] was Active. Further, the EC50 on Histone deacetylase [1] worked out at 290 nM.
As for `COc1ccc2[nH]c(C(=O)c3ccc(/C=C/C(=O)NO)cc3)cc2c1`, the IC50 was determined as 320 nM at Histone deacetylase 1, 280 nM at Histone deacetylase [2] and 3440 nM in the test with HeLa. For the same molecule, the EC50 at Histone deacetylase [1] came to 4270 nM.
As for `COc1cccc(C(=O)c2cc3cc(/C=C/C(=O)NO)ccc3[nH]2)c1`, the IC50 against Histone deacetylase 1 worked out at 300 nM; against Histone deacetylase [2], 330 nM; with HeLa, 2960 nM. Besides, on Histone deacetylase [1], the EC50 stood at 2570 nM.
